Experimental data as given in US20260242330A1, “USE OF AN AMANTADINE MONONITRATE COMPOUND IN MANUFACTURE OF A MEDICAMENT FOR THE PREVENTION AND TREATMENT OF HYPERTENSION” (GUANGZHOU MAGPIE PHARMACEUTICALS CO., LTD., priority 2022, published 2026).

Test system: blood pressure of subjects
Experiment: Effect of single administration of MN-08 on blood pressure of subjects (clinical trial)
Format: in vivo, human
From the text: All subjects in the following embodiments have signed informed consent forms, which comply with medical ethics regulations. According to the relevant provisions of Chinese Guidelines for the Prevention and Treatment of Hypertension (2018 Revision), the values measured for hypertension are the average blood pressure measured three times on a different day without the use of antihypertensive drugs. Therefore, in this embodiment, the baseline blood pressure of the subjects before administration is set as the average blood pressure measured at three different times: screening period, occupancy period, and 1 hour before administration, as shown in Tables 1 to 3.
In the clinical trial of amantadine mononitrate compound MN-08, it is investigated the effect of MN-08 on blood pressure in subjects. The experiments were carried out to analyze the blood pressure status of subjects in both the single dose and multiple dose groups.
During a single administration, each dose group is required to fast for at least 10 hours before administration, without water deprivation overnight, and on the day of administration, the medication is taken on an empty stomach at around 8 a.m., with 240 mL of water administered.

CCC12CC3CC(N)(C1)CC(CO[N+](=O)[O-])(C3)C2 (centres unmarked) [MN-08]
diastolic pressure reduced by (6 mg single dose, at 6 hours): 17.1%
systolic pressure reduced by (6 mg single dose, at 6 hours): 13.2%
DP (Subject 1, 12 mg single dose, 6 hrs after adm. (D 1), baseline 77 mmHg): 64 mmHg
SP (Subject 1, 12 mg single dose, 6 hrs after adm. (D 1), baseline 122 mmHg): 104 mmHg
DP (reduce amplitude) (Subject 1, 12 mg single dose, 6 hrs after adm. (D 1), vs baseline 77 mmHg): −16.9%
SP (reduce amplitude) (Subject 1, 12 mg single dose, 6 hrs after adm. (D 1), vs baseline 122 mmHg): −14.8%
DP (Subject 1, 12 mg single dose, 12 hrs after adm. (D 1), baseline 77 mmHg): 60 mmHg
SP (Subject 1, 12 mg single dose, 12 hrs after adm. (D 1), baseline 122 mmHg): 109 mmHg
DP (reduce amplitude) (Subject 1, 12 mg single dose, 12 hrs after adm. (D 1), vs baseline 77 mmHg): −22.1%
SP (reduce amplitude) (Subject 1, 12 mg single dose, 12 hrs after adm. (D 1), vs baseline 122 mmHg): −10.7%
DP (Subject 2, 42 mg single dose, 6 hrs after adm. (D 1), baseline 79 mmHg): 63 mmHg
SP (Subject 2, 42 mg single dose, 6 hrs after adm. (D 1), baseline 113 mmHg): 96 mmHg
DP (reduce amplitude) (Subject 2, 42 mg single dose, 6 hrs after adm. (D 1), vs baseline 79 mmHg): −20.3%
SP (reduce amplitude) (Subject 2, 42 mg single dose, 6 hrs after adm. (D 1), vs baseline 113 mmHg): −15.0%
DP (Subject 2, 42 mg single dose, 12 hrs after adm. (D 1), baseline 79 mmHg): 69 mmHg
SP (Subject 2, 42 mg single dose, 12 hrs after adm. (D 1), baseline 113 mmHg): 96 mmHg
DP (reduce amplitude) (Subject 2, 42 mg single dose, 12 hrs after adm. (D 1), vs baseline 79 mmHg): −12.7%
SP (reduce amplitude) (Subject 2, 42 mg single dose, 12 hrs after adm. (D 1), vs baseline 113 mmHg): −15.0%
DP (Subject 3, 42 mg single dose, 6 hrs after adm. (D 1), baseline 85 mmHg): 72 mmHg
SP (Subject 3, 42 mg single dose, 6 hrs after adm. (D 1), baseline 124 mmHg): 118 mmHg
DP (reduce amplitude) (Subject 3, 42 mg single dose, 6 hrs after adm. (D 1), vs baseline 85 mmHg): −15.3%
SP (reduce amplitude) (Subject 3, 42 mg single dose, 6 hrs after adm. (D 1), vs baseline 124 mmHg): −4.8%
DP (Subject 3, 42 mg single dose, 12 hrs after adm. (D 1), baseline 85 mmHg): 61 mmHg
SP (Subject 3, 42 mg single dose, 12 hrs after adm. (D 1), baseline 124 mmHg): 98 mmHg
DP (reduce amplitude) (Subject 3, 42 mg single dose, 12 hrs after adm. (D 1), vs baseline 85 mmHg): −28.2%
SP (reduce amplitude) (Subject 3, 42 mg single dose, 12 hrs after adm. (D 1), vs baseline 124 mmHg): −21.0%
DP (Subject 4, 60 mg single dose, 6 hrs after adm. (D 1), baseline 78 mmHg): 58 mmHg
SP (Subject 4, 60 mg single dose, 6 hrs after adm. (D 1), baseline 107 mmHg): 93 mmHg
DP (reduce amplitude) (Subject 4, 60 mg single dose, 6 hrs after adm. (D 1), vs baseline 78 mmHg): −25.6%
SP (reduce amplitude) (Subject 4, 60 mg single dose, 6 hrs after adm. (D 1), vs baseline 107 mmHg): −13.1%
DP (Subject 4, 60 mg single dose, 12 hrs after adm. (D 1), baseline 78 mmHg): 58 mmHg
SP (Subject 4, 60 mg single dose, 12 hrs after adm. (D 1), baseline 107 mmHg): 90 mmHg
DP (reduce amplitude) (Subject 4, 60 mg single dose, 12 hrs after adm. (D 1), vs baseline 78 mmHg): −25.6%
SP (reduce amplitude) (Subject 4, 60 mg single dose, 12 hrs after adm. (D 1), vs baseline 107 mmHg): −15.9%
DP (Subject 5, 60 mg single dose, 6 hrs after adm. (D 1), baseline 73 mmHg): 62 mmHg
SP (Subject 5, 60 mg single dose, 6 hrs after adm. (D 1), baseline 111 mmHg): 93 mmHg
DP (reduce amplitude) (Subject 5, 60 mg single dose, 6 hrs after adm. (D 1), vs baseline 73 mmHg): −15.1%
SP (reduce amplitude) (Subject 5, 60 mg single dose, 6 hrs after adm. (D 1), vs baseline 111 mmHg): −16.2%
DP (Subject 5, 60 mg single dose, 12 hrs after adm. (D 1), baseline 73 mmHg): 61 mmHg
SP (Subject 5, 60 mg single dose, 12 hrs after adm. (D 1), baseline 111 mmHg): 95 mmHg
DP (reduce amplitude) (Subject 5, 60 mg single dose, 12 hrs after adm. (D 1), vs baseline 73 mmHg): −16.4%
SP (reduce amplitude) (Subject 5, 60 mg single dose, 12 hrs after adm. (D 1), vs baseline 111 mmHg): −14.4%
DP (Subject 6, 78 mg single dose, 6 hrs after adm. (D 1), baseline 67 mmHg): 61 mmHg
SP (Subject 6, 78 mg single dose, 6 hrs after adm. (D 1), baseline 113 mmHg): 103 mmHg
DP (reduce amplitude) (Subject 6, 78 mg single dose, 6 hrs after adm. (D 1), vs baseline 67 mmHg): −9.0%
SP (reduce amplitude) (Subject 6, 78 mg single dose, 6 hrs after adm. (D 1), vs baseline 113 mmHg): −8.8%
DP (Subject 6, 78 mg single dose, 12 hrs after adm. (D 1), baseline 67 mmHg): 54 mmHg
SP (Subject 6, 78 mg single dose, 12 hrs after adm. (D 1), baseline 113 mmHg): 104 mmHg
DP (reduce amplitude) (Subject 6, 78 mg single dose, 12 hrs after adm. (D 1), vs baseline 67 mmHg): −19.4%
SP (reduce amplitude) (Subject 6, 78 mg single dose, 12 hrs after adm. (D 1), vs baseline 113 mmHg): −8.0%
DP (Subject 7, 78 mg single dose, 6 hrs after adm. (D 1), baseline 74 mmHg): 62 mmHg
SP (Subject 7, 78 mg single dose, 6 hrs after adm. (D 1), baseline 106 mmHg): 94 mmHg
DP (reduce amplitude) (Subject 7, 78 mg single dose, 6 hrs after adm. (D 1), vs baseline 74 mmHg): −16.2%
SP (reduce amplitude) (Subject 7, 78 mg single dose, 6 hrs after adm. (D 1), vs baseline 106 mmHg): −11.3%
DP (Subject 7, 78 mg single dose, 12 hrs after adm. (D 1), baseline 74 mmHg): 60 mmHg
SP (Subject 7, 78 mg single dose, 12 hrs after adm. (D 1), baseline 106 mmHg): 102 mmHg
DP (reduce amplitude) (Subject 7, 78 mg single dose, 12 hrs after adm. (D 1), vs baseline 74 mmHg): −18.9%
SP (reduce amplitude) (Subject 7, 78 mg single dose, 12 hrs after adm. (D 1), vs baseline 106 mmHg): −3.8%
DP (Subject 8, 96 mg single dose, 6 hrs after adm. (D 1), baseline 69 mmHg): 51 mmHg
SP (Subject 8, 96 mg single dose, 6 hrs after adm. (D 1), baseline 101 mmHg): 79 mmHg
DP (reduce amplitude) (Subject 8, 96 mg single dose, 6 hrs after adm. (D 1), vs baseline 69 mmHg): −26.1%
SP (reduce amplitude) (Subject 8, 96 mg single dose, 6 hrs after adm. (D 1), vs baseline 101 mmHg): −21.8%
DP (Subject 8, 96 mg single dose, 12 hrs after adm. (D 1), baseline 69 mmHg): 61 mmHg
SP (Subject 8, 96 mg single dose, 12 hrs after adm. (D 1), baseline 101 mmHg): 87 mmHg
DP (reduce amplitude) (Subject 8, 96 mg single dose, 12 hrs after adm. (D 1), vs baseline 69 mmHg): −11.6%
SP (reduce amplitude) (Subject 8, 96 mg single dose, 12 hrs after adm. (D 1), vs baseline 101 mmHg): −13.8%
DP (Subject 9, 96 mg single dose, 6 hrs after adm. (D 1), baseline 78 mmHg): 63 mmHg
SP (Subject 9, 96 mg single dose, 6 hrs after adm. (D 1), baseline 121 mmHg): 105 mmHg
DP (reduce amplitude) (Subject 9, 96 mg single dose, 6 hrs after adm. (D 1), vs baseline 78 mmHg): −19.2%
SP (reduce amplitude) (Subject 9, 96 mg single dose, 6 hrs after adm. (D 1), vs baseline 121 mmHg): −13.2%
DP (Subject 9, 96 mg single dose, 12 hrs after adm. (D 1), baseline 78 mmHg): 68 mmHg
SP (Subject 9, 96 mg single dose, 12 hrs after adm. (D 1), baseline 121 mmHg): 103 mmHg
DP (reduce amplitude) (Subject 9, 96 mg single dose, 12 hrs after adm. (D 1), vs baseline 78 mmHg): −12.8%
SP (reduce amplitude) (Subject 9, 96 mg single dose, 12 hrs after adm. (D 1), vs baseline 121 mmHg): −14.8%
DP (Subject 10, 114 mg single dose, 6 hrs after adm. (D 1), baseline 75 mmHg): 62 mmHg
SP (Subject 10, 114 mg single dose, 6 hrs after adm. (D 1), baseline 115 mmHg): 92 mmHg
DP (reduce amplitude) (Subject 10, 114 mg single dose, 6 hrs after adm. (D 1), vs baseline 75 mmHg): −17.3%
SP (reduce amplitude) (Subject 10, 114 mg single dose, 6 hrs after adm. (D 1), vs baseline 115 mmHg): −20.0%
DP (Subject 10, 114 mg single dose, 12 hrs after adm. (D 1), baseline 75 mmHg): 57 mmHg
SP (Subject 10, 114 mg single dose, 12 hrs after adm. (D 1), baseline 115 mmHg): 90 mmHg
DP (reduce amplitude) (Subject 10, 114 mg single dose, 12 hrs after adm. (D 1), vs baseline 75 mmHg): −24.0%
SP (reduce amplitude) (Subject 10, 114 mg single dose, 12 hrs after adm. (D 1), vs baseline 115 mmHg): −21.7%
DP (Subject 11, 114 mg single dose, 6 hrs after adm. (D 1), baseline 85 mmHg): 68 mmHg
SP (Subject 11, 114 mg single dose, 6 hrs after adm. (D 1), baseline 126 mmHg): 119 mmHg
DP (reduce amplitude) (Subject 11, 114 mg single dose, 6 hrs after adm. (D 1), vs baseline 85 mmHg): −20.0%
SP (reduce amplitude) (Subject 11, 114 mg single dose, 6 hrs after adm. (D 1), vs baseline 126 mmHg): −5.6%
DP (Subject 11, 114 mg single dose, 12 hrs after adm. (D 1), baseline 85 mmHg): 68 mmHg
SP (Subject 11, 114 mg single dose, 12 hrs after adm. (D 1), baseline 126 mmHg): 105 mmHg
DP (reduce amplitude) (Subject 11, 114 mg single dose, 12 hrs after adm. (D 1), vs baseline 85 mmHg): −20.0%
SP (reduce amplitude) (Subject 11, 114 mg single dose, 12 hrs after adm. (D 1), vs baseline 126 mmHg): −16.7%
DP (Subject 12, 132 mg single dose, 6 hrs after adm. (D 1), baseline 78 mmHg): 59 mmHg
SP (Subject 12, 132 mg single dose, 6 hrs after adm. (D 1), baseline 123 mmHg): 120 mmHg
DP (reduce amplitude) (Subject 12, 132 mg single dose, 6 hrs after adm. (D 1), vs baseline 78 mmHg): −24.4%
SP (reduce amplitude) (Subject 12, 132 mg single dose, 6 hrs after adm. (D 1), vs baseline 123 mmHg): −2.4%
DP (Subject 12, 132 mg single dose, 12 hrs after adm. (D 1), baseline 78 mmHg): 60 mmHg
SP (Subject 12, 132 mg single dose, 12 hrs after adm. (D 1), baseline 123 mmHg): 105 mmHg
DP (reduce amplitude) (Subject 12, 132 mg single dose, 12 hrs after adm. (D 1), vs baseline 78 mmHg): −23.1%
SP (reduce amplitude) (Subject 12, 132 mg single dose, 12 hrs after adm. (D 1), vs baseline 123 mmHg): −14.6%
DP (Subject 13, 132 mg single dose, 6 hrs after adm. (D 1), baseline 68 mmHg): 54 mmHg
SP (Subject 13, 132 mg single dose, 6 hrs after adm. (D 1), baseline 106 mmHg): 97 mmHg
DP (reduce amplitude) (Subject 13, 132 mg single dose, 6 hrs after adm. (D 1), vs baseline 68 mmHg): −20.6%
SP (reduce amplitude) (Subject 13, 132 mg single dose, 6 hrs after adm. (D 1), vs baseline 106 mmHg): −8.5%
DP (Subject 13, 132 mg single dose, 12 hrs after adm. (D 1), baseline 68 mmHg): 56 mmHg
SP (Subject 13, 132 mg single dose, 12 hrs after adm. (D 1), baseline 106 mmHg): 96 mmHg
DP (reduce amplitude) (Subject 13, 132 mg single dose, 12 hrs after adm. (D 1), vs baseline 68 mmHg): −17.6%
SP (reduce amplitude) (Subject 13, 132 mg single dose, 12 hrs after adm. (D 1), vs baseline 106 mmHg): −9.4%
effect of a single dose on blood pressure (all dose groups (6, 12, 42, 60, 78, 96, 114, 132 mg), especially diastolic pressure): can reduce the blood pressure
